Source: patent publication US20230002359A1, “PESTICIDALLY ACTIVE FUSED BICYCLIC HETEROAROMATIC COMPOUNDS” (priority 2019, published 2023)

What was measured:
Format in all cases: in vivo
[1] = test system: Diabrotica Balteata (Corn Root Worm); experiment: Example B1: Diabrotica balteata (corn root worm), maize sprouts sprayed, L2 larvae; conditions: 96 h, application rate of 200 ppm, 4 days after infestation, L2 larvae, read-out: control in at least one of the two categories (mortality or growth inhibition)
Outline: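 Maize sprouts on agar were sprayed with aqueous test solutions made from 10′000 ppm DMSO stocks, dried, then infested with 6 to 10 L2 larvae per well. Mortality and growth inhibition were scored against untreated samples 4 days after infestation.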

[2] = test system: Plutella xylostella (Diamond Back Moth); experiment: Example B4: Plutella xylostella (diamond back moth), artificial diet, eggs, 24-well; conditions: 192 h, application rate of 200 ppm, 8 days after infestation, eggs, read-out: control in at least one of the two categories (mortality or growth inhibition)
Experimental: 24-well microtiter plates with artificial diet were treated with aqueous test solutions prepared from 10′000 ppm DMSO stock solutions by pipetting. After drying, Plutella eggs were pipetted through a plastic stencil onto a gel blotting paper and the plate was closed with it. The samples were assessed for mortality and growth inhibition in comparison to untreated samples 8 days after infestation.

[3] = test system: Spodoptera littoralis (Egyptian Cotton Leaf Worm); experiment: Example B7: Spodoptera littoralis (Egyptian cotton leaf worm), cotton leaf discs sprayed, L1 larvae; conditions: foliar, 72 h, application rate of 200 ppm, 3 days after infestation, L1 larvae, read-out: control in at least one of the three categories (mortality, anti-feedant effect, or growth inhibition)
Outline: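 Leaf discs on agar; spray, aqueous dilution of 10′000 ppm DMSO stock; dry; 5 L1 larvae/disc. Read at 3 d post-infestation: mortality, antifeedant, growth inhibition vs untreated. Control = ≥1 category above untreated.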

[4] = test system: Chilo suppressalis (Striped Rice Stemborer); experiment: Example B3: Chilo suppressalis (striped rice stemborer), artificial diet, L2 larvae; conditions: 144 h, application rate of 200 ppm, 6 days after infestation, L2 larvae, read-out: control in at least one of the three categories (mortality, anti-feedant effect, or growth inhibition)
Outline: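 First, artificial diet was treated with aqueous solutions prepared from 10'000 ppm DMSO stocks; second, after drying, L2 larvae (6-8/well) were added; third, effects were assessed at 6 days against untreated controls, counting control when any of three categories was higher.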

C[C@@H](c1ncnn1-c1ccc(C#N)cn1)N(C)c1ncnc2c(C(F)(F)F)cc(C(F)(F)C3CC3)cc12 [P.163, 6-[5-[(1S)-1-[[6-[cyclopropyl(difluoro)meth-yl]-8-(trifluoromethyl)quinazolin-4-yl]-methyl-amino]ethyl]-1,2,4-triazol-1-yl]pyridine-3-carbonitrile]
≥ 80%: percent control (mortality or growth inhibition) at 200 ppm [1] | percent control (mortality or growth inhibition) at 200 ppm [2] | percent control (mortality, anti-feedant effect or growth inhibition) at 200 ppm [3] | percent control (mortality, anti-feedant effect or growth inhibition) at 200 ppm [4]

CC(Nc1ncnc2c(OC(F)(F)F)cc(Br)cc12)c1nccnc1-n1nccn1 (centres unmarked) [P.14, 6-bromo-N-[1-[3-(triazol-2-yl)pyrazin-2-yl]ethyl]-8-(trifluoromethoxy)quina-zolin-4-amine]
≥ 80%: percent control (mortality or growth inhibition) at 200 ppm [1] | percent control (mortality or growth inhibition) at 200 ppm [2] | percent control (mortality, anti-feedant effect or growth inhibition) at 200 ppm [3] | percent control (mortality, anti-feedant effect or growth inhibition) at 200 ppm [4]

CC(Nc1ncnc2c(C(F)(F)F)cc(Cl)cc12)c1nccnc1-c1ccc(OC(F)F)cn1 (centres unmarked) [P.120, 6-chloro-N-[1-[3-[5-(difluoromethoxy)-2-pyridyl]pyrazin-2-yl]ethyl]-8-(trifluoromethyl)quinazolin-4-amine]
≥ 80%: percent control (mortality or growth inhibition) at 200 ppm [1] | percent control (mortality or growth inhibition) at 200 ppm [2] | percent control (mortality, anti-feedant effect or growth inhibition) at 200 ppm [3] | percent control (mortality, anti-feedant effect or growth inhibition) at 200 ppm [4]

CC(c1ncnn1-c1ccc(C#N)cn1)N(C#N)c1ncnc2c(C(F)(F)F)cc(C(F)(F)F)cc12 (centres unmarked) [P.9, [6,8-bis(trifluoromethyl)quina-zolin-4-yl]-[1-[2-(5-cyano-2-pyridyl)-1,2,4-triazol-3-yl]ethyl]cyanamide]
≥ 80%: percent control (mortality or growth inhibition) at 200 ppm [1] | percent control (mortality or growth inhibition) at 200 ppm [2] | percent control (mortality, anti-feedant effect or growth inhibition) at 200 ppm [3] | percent control (mortality, anti-feedant effect or growth inhibition) at 200 ppm [4]

CC(c1nccnc1-c1ccc(OC(F)F)cn1)N(C)c1ncnc2c(C(F)(F)F)cc(Cl)cc12 (centres unmarked) [P.123, 6-chloro-N-[1-[3-[5-(difluoromethoxy)-2-pyridyl]pyrazin-2-yl]ethyl]-N-methyl-8-(trifluoromethyl)quinazolin-4-amine]
≥ 80%: percent control (mortality or growth inhibition) at 200 ppm [1] | percent control (mortality or growth inhibition) at 200 ppm [2] | percent control (mortality, anti-feedant effect or growth inhibition) at 200 ppm [3] | percent control (mortality, anti-feedant effect or growth inhibition) at 200 ppm [4]

CC(c1nccnc1-c1ccc(OC(F)F)cn1)N(C)c1ncnc2c(Br)cc(C(F)(F)F)cc12 (centres unmarked) [P.114, 8-bromo-N-[1-[3-[5-(difluoromethoxy)-2-pyridyl]pyrazin-2-yl]ethyl]-N-methyl-6-(trifluoromethyl)quinazolin-4-amine]
≥ 80%: percent control (mortality or growth inhibition) at 200 ppm [1] | percent control (mortality or growth inhibition) at 200 ppm [2] | percent control (mortality, anti-feedant effect or growth inhibition) at 200 ppm [3] | percent control (mortality, anti-feedant effect or growth inhibition) at 200 ppm [4]

CC(c1nccnc1-c1ncccn1)N(C)c1ccnc2c(C(F)(F)F)cc(C(F)(F)F)cc12 (centres unmarked) [P.249, N-methyl-N-[1-(3-pyrimidin-2-ylpyrazin-2-yl)ethyl]-6,8-bis(trifluoromethyl)quino-lin-4-amine]
≥ 80%: percent control (mortality or growth inhibition) at 200 ppm [1] | percent control (mortality or growth inhibition) at 200 ppm [2] | percent control (mortality, anti-feedant effect or growth inhibition) at 200 ppm [3] | percent control (mortality, anti-feedant effect or growth inhibition) at 200 ppm [4]

CC(c1nccnc1-c1ccc(C#N)cn1)N(C)c1ncnc2c(C(F)(F)F)cc(C(F)(F)F)cc12 (centres unmarked) [P.116, 6-[3-[1-[[6,8-bis(trifluoromethyl)quina-zolin-4-yl]-methyl-amino]ethyl]pyrazin-2-yl]pyridine-3-carbonitrile]
≥ 80%: percent control (mortality or growth inhibition) at 200 ppm [1] | percent control (mortality or growth inhibition) at 200 ppm [2] | percent control (mortality, anti-feedant effect or growth inhibition) at 200 ppm [3] | percent control (mortality, anti-feedant effect or growth inhibition) at 200 ppm [4]

CC(c1ncnn1-c1ccc(Br)cn1)N(C)c1ncnc2c(Cl)cc(C(F)(F)F)cc12 (centres unmarked) [P.240, N-[1-[2-(5-bromo-2-pyridyl)-1,2,4-triazol-3-yl]ethyl]-8-chloro-N-methyl-6-(trifluoromethyl)quinazolin-4-amine]
≥ 80%: percent control (mortality or growth inhibition) at 200 ppm [1] | percent control (mortality or growth inhibition) at 200 ppm [2] | percent control (mortality, anti-feedant effect or growth inhibition) at 200 ppm [3] | percent control (mortality, anti-feedant effect or growth inhibition) at 200 ppm [4]

CC(c1ncnn1-c1ccc(Br)cn1)N(C)c1ncnc2c(C(F)(F)F)cc(Cl)cc12 (centres unmarked) [P.238, N-[1-[2-(5-bromo-2-pyridyl)-1,2,4-triazol-3-yl]ethyl]-6-chloro-N-methyl-8-(trifluoromethyl)quinazolin-4-amine]
≥ 80%: percent control (mortality or growth inhibition) at 200 ppm [1] | percent control (mortality or growth inhibition) at 200 ppm [2] | percent control (mortality, anti-feedant effect or growth inhibition) at 200 ppm [3] | percent control (mortality, anti-feedant effect or growth inhibition) at 200 ppm [4]

CC(Nc1ncnc2c(Cl)cc(C(F)(F)F)cc12)c1nccnc1-n1nccn1 (centres unmarked) [P.35, 8-chloro-N-[1-[3-(triazol-2-yl)pyrazin-2-yl]ethyl]-6-(trifluoromethyl)quinazolin-4-amine]
≥ 80%: percent control (mortality or growth inhibition) at 200 ppm [1] | percent control (mortality or growth inhibition) at 200 ppm [2] | percent control (mortality, anti-feedant effect or growth inhibition) at 200 ppm [3] | percent control (mortality, anti-feedant effect or growth inhibition) at 200 ppm [4]

CC(c1nc(Br)nn1-c1ncccn1)N(C)c1ncnc2c(C(F)(F)F)cc(Cl)cc12 (centres unmarked) [P.205, N-[1-(5-bromo-2-pyrimidin-2-yl-1,2,4-triazol-3-yl)ethyl]-6-chloro-N-methyl-8-(trifluoromethyl)quinazolin-4-amine]
≥ 80%: percent control (mortality or growth inhibition) at 200 ppm [1] | percent control (mortality or growth inhibition) at 200 ppm [2] | percent control (mortality, anti-feedant effect or growth inhibition) at 200 ppm [3] | percent control (mortality, anti-feedant effect or growth inhibition) at 200 ppm [4]

CC(c1ncnn1-c1ccc(Br)cn1)N(C)c1ncnc2c(C(F)(F)F)cc(Br)cc12 (centres unmarked) [P.237, 6-bromo-N-[1-[2-(5-bromo-2-pyridyl)-1,2,4-triazol-3-yl]ethyl]-N-methyl-8-(trifluoromethyl)quinazolin-4-amine]
≥ 80%: percent control (mortality or growth inhibition) at 200 ppm [1] | percent control (mortality or growth inhibition) at 200 ppm [2] | percent control (mortality, anti-feedant effect or growth inhibition) at 200 ppm [3] | percent control (mortality, anti-feedant effect or growth inhibition) at 200 ppm [4]

C[C@H](Nc1ncnc2c(C(F)(F)F)cc(I)cc12)c1ncnn1-c1ccc(C#N)cn1 [P.218, 6-[5-[(1S)-1-[[6-iodo-8-(trifluoromethyl)quinazolin-4-yl]amino]ethyl]-1,2,4-triazol-1-yl]pyridine-3-carbonitirle]
≥ 80%: percent control (mortality or growth inhibition) at 200 ppm [1] | percent control (mortality or growth inhibition) at 200 ppm [2] | percent control (mortality, anti-feedant effect or growth inhibition) at 200 ppm [3] | percent control (mortality, anti-feedant effect or growth inhibition) at 200 ppm [4]

C[C@@H](c1ncnn1-c1ncccn1)N(C)c1ccnc2c(Br)cc(C(F)(F)F)cc12 [P.255, 8-bromo-N-methyl-N-[(1S)-1-(2-pyrimidn-2-yl-1,2,4-triazol-3-yl)ethyl]-6-(trifluoromethyl)quinolin-4-amine]
≥ 80%: percent control (mortality or growth inhibition) at 200 ppm [1] | percent control (mortality or growth inhibition) at 200 ppm [2] | percent control (mortality, anti-feedant effect or growth inhibition) at 200 ppm [3] | percent control (mortality, anti-feedant effect or growth inhibition) at 200 ppm [4]

CC(c1nccnc1-n1nccn1)N(C)c1ncnc2c(Br)cc(C(F)(F)F)cc12 (centres unmarked) [P.104, 8-bromo-N-methyl-N-[1-[3-(triazol-2-yl)pyrazin-2-yl]ethyl]-6-(trifluoromethyl)quinazolin-4-amine]
≥ 80%: percent control (mortality or growth inhibition) at 200 ppm [1] | percent control (mortality or growth inhibition) at 200 ppm [2] | percent control (mortality, anti-feedant effect or growth inhibition) at 200 ppm [3] | percent control (mortality, anti-feedant effect or growth inhibition) at 200 ppm [4]

CC(Nc1ncnc2c(Br)cc(C(F)(F)F)cc12)c1nccnc1-c1ccc(OC(F)F)cn1 (centres unmarked) [P.111, 8-bromo-N-[1-[3-[5-(difluoromethoxy)-2-pyridyl]pyrazin-2-yl]ethyl]-6-(trifluoromethyl)quinazolin-4-amine]
≥ 80%: percent control (mortality or growth inhibition) at 200 ppm [1] | percent control (mortality or growth inhibition) at 200 ppm [2] | percent control (mortality, anti-feedant effect or growth inhibition) at 200 ppm [3] | percent control (mortality, anti-feedant effect or growth inhibition) at 200 ppm [4]
